Experiment [1] concerns the target CpomPBP1. Nature of the experiment: Competitive binding assay with 1-NPN fluorescence probe. On the set-up: species or system Cydia pomonella. Particulars: for Kd: wild type CpomPBP1, 2 μM protein, 2 μM 1-NPN, 50 mM Tris-HCl pH 7.0, read-out: dissociation constant (Kd). How it is done:
(§1) According to the results of virtual screening and commercial availability of the matched semiochemicals, 8 compounds (including Codlemone) were finally subjected to competitive binding assay by taking 1-NPN as the fluorescence probe. All ligands including 1-NPN were dissolved in ethanol of GC grade. […] The fluorescence was measured on a Hitachi F-4600 spectrofluorimeter with a slit width of 5 nm for excitation and emission. The excitation wavelength was decided to be 337 nm and the fluorescence emissions were recorded from 350 to 500 nm. The in vitro binding assays between CpomPBP2 and small molecule compounds were performed in the same way.
(§2) It was assumed that CpomPBP1 (MT and WT) was 100% active and the binding between protein and ligand was 1:1 at saturation. To analyze the obtained data and to calculate the Kd of each ligand, Graphpad Prism software (Graphpad software, Inc.) was employed.

Experiment [2] deals with CpomPBP2 (Cydia pomonella, UniProt I3ZNT9). The description is as above. As to the method: as §1, §2
Experiment [3] relates to CpomPBP1W37A. Nature of the experiment: Competitive binding assay, mutant protein. On the set-up: species or system Cydia pomonella. The settings on record: W37A; RTln(Kd-MT/Kd-WT). How it is done:
as §1
(§3) To test binding ability changes of CpomPBP1 caused by the mutation of each target site, the in vitro binding assays between CpomPBP1 proteins (MT and WT CpomPBP1) and ETrME was implemented according to the part of competitive binding assay.
as §2
(§4) The experimental binding free energy of the complexes formed by ETrME and each mutant was calculated by the equation (1): […]
(§5) In this equation, Kd-MT and Kd-WT are the dissociation constants for mutant and wild CpomPBP1 respectively. R stands for the ideal gas constant and T means the temperature in Kelvin.

Experiment [4] relates to CpomPBP1F36A. Nature of the experiment: Competitive binding assay, mutant protein. The settings on record: F36A; RTln(Kd-MT/Kd-WT). On the set-up: species or system Cydia pomonella. As to the method:
as §1, §3, §2, §4, §5

Experiment [5] relates to CpomPBP1I52A. Description: Competitive binding assay, mutant protein. The settings on record: I52A; RTln(Kd-MT/Kd-WT). The arrangement: species or system Cydia pomonella. As to the method: as §1, §3, §2, §4, §5
Experiment [6] has as its system CpomPBP1I94A. Nature of the experiment: Competitive binding assay, mutant protein. On the set-up: species or system Cydia pomonella. Particulars: I94A; RTln(Kd-MT/Kd-WT). As to the method:
as §1, §3, §2, §4, §5

Experiment [7] has as its system CpomPBP1F12A. Description: Competitive binding assay, mutant protein. The arrangement: species or system Cydia pomonella. The settings on record: F12A; RTln(Kd-MT/Kd-WT). As to the method:
as §1, §3, §2, §4, §5

SMILES strings stand for the structures.

For orientation: Kd means the free concentration of one partner at which half of the binding sites on the other are occupied at equilibrium, for simple one-to-one binding.

CpomPBP2, sequence (I3ZNT9 26-169 limits assumed): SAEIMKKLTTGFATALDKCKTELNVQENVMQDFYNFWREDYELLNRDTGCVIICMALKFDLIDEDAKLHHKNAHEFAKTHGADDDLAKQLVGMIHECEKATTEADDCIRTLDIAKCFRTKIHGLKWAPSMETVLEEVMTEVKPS

Take `CCC=CCC=CCC=CCC=CC=CC(O)CCCC(=O)O` (racemic) [(±)5-HEPE]: in experiment [1], the Kd is 8.23 µM.
In the case of `C/C=C/C=C/CCCCCCCO` [Codlemone, reference compound], in experiment [2] (titration course, 1-NPN probe), the “binding to CpomPBP2 (in words)” value is “no binding”. The Kd in experiment [1] stood at 3.78 µM.
Take `CCC=CCC=CCC=CCCCCCCCCCC(=O)OC` [ETrME]: the dissociation constant (Kd) in experiment [2] (CpomPBP2, 1-NPN competitive binding, read-out: dissociation constant (Kd)) came out at 8.62 µM; in experiment [1] it was 3.14 µM. Also, the ΔΔGbind-exp in experiment [3] amounted to 3.54 kcal/mol; in experiment [4] it was 3.25 kcal/mol; in experiment [5], 1.86 kcal/mol; in experiment [6] it was 1.4 kcal/mol; in experiment [7] it was 2.80 kcal/mol.
Consider `CCCCC/C=C\C/C=C\CCCCCCCC(=O)O` [Linoleic acid], for which the “binding to CpomPBP1 (in words)” value in experiment [1] (titration 0 to 64 μM ligand, 1-NPN probe) is reported as “no binding”.
In the case of `CCCCC/C=C\C/C=C\C/C=C\CCCCCCC(=O)O` [Z-8,11,14-Eicosatrienoic acid], the equilibrium dissociation constant (Kd) in experiment [1] is 12.8 µM.

Source of the values: publication PMC5052595, “Structure-based discovery of potentially active semiochemicals for Cydia pomonella (L.)” (Scientific Reports, 2016).
